In patent US8410310B2, “Trypsin-like serine protease inhibitors, and their preparation and use” (The Medicines Company (Leipzig) GmbH, priority 2006, dated 2013):

Assays:
[1] = test system: t-PA-induced lysis of whole blood clots; assay: Whole blood fibrinolysis assay (ROTEM, EXTEM with t-PA); assay type: cell-based, human; conditions: for IC50: Ly60, read-out: concentration resulting in 50% suppression of clot lysis (IC50, median [25%; 75% percentile]); for potency at inhibiting clot lysis relative to tranexamic acid: whole blood and plasma clot lysis, versus tranexamic acid
Description: Venous blood was withdrawn from the antecubital vein from healthy volunteers after written informed consent in accordance with local and federal guidelines with approval of the local review board (Ethikkommission, Klinikum Charité, Sauerbruchweg 5, 10117 Berlin). The blood was mixed with 0.11 mol/L sodium citrate (1:10). For ROTEM® analysis, whole citrated blood was used within 8 h after collection. Platelet-rich plasma (PRP) was prepared from citrated blood by centrifugation at 330×g for 10 min at room temperature, platelet-poor plasma (PPP) was collected following centrifugation at 1220×g for 12 min. The PRP was then adjusted to 3×10^8 platelets per mL using the autologous PPP. PRP was maintained at room temperature for less than 4 h before analysis. The remaining PPP was subjected to a high-speed centrifugation at 40,000×g for 30 min at 4° C. to remove any particulate material and was then stored at −70° C. until use.
The antifibrinolytic activity of Compound No. 3 in comparison to aprotinin and tranexamic acid was investigated in plasma and whole blood assays. In both assays, tissue factor was added to initiate rapid clot formation via the extrinsic pathway which produces a clot that remains stable for several hours under normal conditions. Supplementation of plasma or whole blood with tissue-type plasminogen activator (t-PA) before stimulation results in activation of endogenous plasminogen and thus fibrinolysis while the initial clot formation is not impaired. […] A final concentration of 50 U/mL and 100 U/mL in plasma and whole blood, respectively, was chosen to achieve complete lysis within about 60 min. In the presence of antifibrinolytics, clot lysis is delayed in a concentration-dependent manner.
Fibrinolysis in whole blood was studied with rotational thromboelastometry (Luddington, Clin. Lab. Haematol. 27: 81-90, 2005) using a computerized, multi-channel ROTEM® instrument (Pentapharm, Munich, Germany) (Ganter et al., Anesth. Analg. 106: 1366-75, 2008). Activation of test samples accelerated the measurement process and enhanced reproducibility compared with conventional thromboelastography. To allow observation of fibrinolysis, ROTEM® analysis with tissue factor activation (EXTEM) was modified through addition of t-PA (Nielsen et al. Blood Coagul. Fibrinolysis 17: 75-81, 2006). Citrated blood was pre-incubated at 37° C. for 5 min with test compound or saline before tissue factor, CaCl2 and t-PA (100 U/mL final concentration) were added to start the reaction. Fibrinolysis was determined by measuring loss of clot strength with time and was recorded as Ly60 (percentage reduction of the maximum amplitude at 60 min after the onset of clotting). In control samples without inhibitor, clots were lysed completely within 60 min, such that Ly60 was above 90%. By plotting Ly60 versus test compound concentration, IC50 values for each compound were calculated.

[2] = test system: coagulation in human plasma (PPP); assay: Plasma coagulation times (prothrombin time, activated partial thromboplastin time); assay type: biochemical; conditions: for plasma coagulation times (prothrombin time, activated partial thromboplastin time): 100 to 1000 nM
Source text: (§1) Since Compound No. 3 inhibits multiple proteases of the coagulation system, we investigated possible anticoagulant properties using established tests in vitro. Whereas tissue factor is the physiologic trigger of coagulation, both extrinsic and contact-mediated stimulation contribute to hemostatic activation under conditions like CPB (Boisclair et al. Blood 82: 3350-7, 1993 and Edmunds et al., Ann. Thorac. Surg. 82: 2315-22, 2006). We therefore studied the impact of Compound No. 3 and aprotinin on coagulation in plasma and whole blood following both intrinsic and extrinsic stimulation. Tranexamic acid has no influence on other proteases than plasminogen and, therefore, is not included in these experiments.
Prothrombin time and activated partial thromboplastin time were determined after human plasma (PPP) was supplemented with test compound solution or saline using a conventional coagulation analyzer (Sysmex CA-560, Dade Behring). Reagents used were Innovin® (extrinsic activator containing tissue factor) for prothrombin time and Actin® FSL (contact activator containing ellagic acid and phospholipids) for activated partial thromboplastin time, both from Dade Behring (Eschborn, Germany).

[3] = test system: whole blood clotting; assay: Whole blood coagulation assay (ROTEM, INTEM/EXTEM); assay type: cell-based, human; conditions: for whole blood coagulation times (INTEM, EXTEM clotting time): 100 to 1000 nM; for clot strength (ROTEM maximum amplitude): over the concentration range tested (data not shown)
Source text: as §1
The influence on whole blood clotting was assayed with rotational thrombelastometry (Ganter et al., Anesth. Analg. 106: 1366-75, 2008) using ellagic acid (INTEM reagent) as activator of the intrinsic system or tissue factor (EXTEM reagent) as extrinsic coagulation activator. Following a 5-min pre-incubation with test compounds or saline, citrated human blood was subjected to ROTEM® analysis according to the manufacturer's instructions. ROTEM® clotting time (equal to reaction time, r) and maximum clot strength (equal to maximum amplitude) were obtained as coagulation parameters.

[4] = target: Thrombin (Homo sapiens, UniProt P00734); assay: Inhibition constants against purified human serine proteases: thrombin; assay type: biochemical; set-up: Human factor Xa, factor XIa, factor XIIa, thrombin, and plasma kallikrein were purchased; purchased Enzyme Research Laboratories (via Haemochrom, Essen); conditions: 50 mM Tris-HCl pH 8.0, 154 mM NaCl, Pefachrom tPA
Source text: Aprotinin and tranexamic acid were purchased from SIGMA (Schnelldorf, Germany). Human factor Xa, factor XIa, factor XIIa, thrombin, and plasma kallikrein were purchased from Enzyme Research Laboratories, and human plasmin from Chromogenix (both via Haemochrom, Essen, Germany). Various synthetic peptide chromogenic substrates used for determination of inhibition constants were obtained from Pentapharm (Basel, Switzerland), Roche (Mannheim, Germany), and Chromogenix: Chromozyme PL for plasmin, S2302 for plasma kallikrein, Pefachrome FXa for factor Xa, Chromozym XII for FXIIa, Pefachrom tPA for thrombin, and Pefachrome PCa for factor XIa. […]
Inhibition of purified human serine proteases by Compound No. 3 and aprotinin was studied using the established methods described herein in Example 3 (i.e., Stürzebecher et al., 1997). […] Steady-state velocities of substrate conversion were obtained from progress curves generated by continuous monitoring of the absorbance at 405 nm with a microplate reader (Multiskan Ascent, Thermo Electron Corporation, Dreieich, Germany). […] Inhibition constants (Ki) were calculated from non-linear fits of individual data sets to the Michaelis-Menten equation for competitive inhibitors using an enzyme kinetic analysis software (SIGMA Plot® 9.0 Enzyme Kinetics Module, SSI, San Jose, Calif.). […]

[5] = human whole blood, t-PA 100 U/mL
[6] = higher aprotinin concentrations (data not shown)

aprotinin
IC50 [1, 5]: 345 nM | IC50 of clot lysis expressed in KIU/mL ([1]; human whole blood, t-PA 100 U/mL, converted from nM): 16 KIU/mL | potency at inhibiting clot lysis relative to tranexamic acid [1]: ~10 fold | plasma coagulation times (prothrombin time, activated partial thromboplastin time) [2]: almost no influence | activated partial thromboplastin time [2, 6]: marked prolongation | extrinsic coagulation [2, 6]: not affected | whole blood coagulation times (INTEM, EXTEM clotting time) [3]: almost no influence | intrinsic ROTEM clotting times [3, 6]: marked prolongation | clot strength (ROTEM maximum amplitude) [3]: Neither Compound No. 3 nor aprotinin impaired clot strength | Ki [4]: 76000 nM

N=C(N)c1ccc(CNC(=O)[C@H](Cc2cccc(CN)c2)NC(=O)[C@@H](CCCc2ccccc2)NS(=O)(=O)Cc2cccc(C(=O)O)c2)cc1 [compound 3, 3-HOOC-Bzls-d-Ppg-Phe(3-Ame)-4-Amba×2 acetate]
IC50 [1, 5]: 150 nM | concentration that largely suppresses clot lysis / effective inhibition ([1]; whole blood ROTEM, t-PA-induced lysis): 600 nM | potency at inhibiting clot lysis relative to tranexamic acid [1]: ~10 fold | plasma coagulation times (prothrombin time, activated partial thromboplastin time) [2]: significant prolongation | whole blood coagulation times (INTEM, EXTEM clotting time) [3]: significant prolongation | clot strength (ROTEM maximum amplitude) [3]: Neither Compound No. 3 nor aprotinin impaired clot strength | Ki [4]: 1700 ± 200 nM
